Drawing on patent publication US12257274B2, “Fructophilic lactic acid producing bacteria” (priority 2019, dated 2025), this text covers MIC for nine compounds.

Structures can show the parent of a compound that is named as a salt. Where two headings read alike, the source gives them in different places.

The subject of assay [1] is Bacillus coagulans MTCC 25235. Kind of assay: MIC of antibiotics by broth microdilution (CLSI), antibiotic resistance pattern. Type of assay: cell-based. How it is done:
(§1) MIC was determined as per the guidelines of Clinical and Laboratory Standards Institute (CLSI 2012). Bacillus coagulans MTCC 25235 suspensions were prepared by suspending 18 h grown bacterial culture in sterile normal saline (0.89% NaCl wt/vol; Himedia, Mumbai India). The turbidity of the bacterial suspension was adjusted to 0.5 McFarland standards (equivalent to 1.5×10^8 colony forming units (CFU)/ml). The antibiotics stock solutions were prepared as per CLSI guidelines and 2-fold serial dilutions were prepared in broth medium (glucose yeast extract acetate broth [GYEA, HiMedia, Mumbai India for Bacillus coagulans MTCC 25235 and Mueller Hinton Broth [MHB, Difco Laboratories, Detroit, Mich USA] for S. aureus) in 100 μl volume in 96-well U bottom microtiter plates (BD Labware, NJ USA). The above-mentioned bacterial suspension was further diluted in the MHB and 100 μl volume of this diluted inoculum was added to each well of the plate resulting in the final inoculum of 5×10^5 CFU/ml in the well and the final concentration of antibiotics ranged from 0.0078 to 4 μg/ml. S. aureus ATCC 6538 was used as reference culture in this study. The plates were incubated at 37° C. for 24 h and were visually read for the absence or presence of turbidity. The minimum concentration of the compound concentration showing no turbidity was recorded as MIC.
On the technique in general: Broth dilution looks for growth in wells or tubes with falling amounts of substance.

Assay [2] has as its system S. aureus ATCC 6538. The assay can be described thus: MIC of antibiotics by broth microdilution (CLSI), reference culture. The format is cell-based. How it is done: as §1
The mark [3] stands for this setting: Heyndrickxia coagulans, MTCC25235, against Bacillus coagulans MTCC 25235, GYEA broth, 37° C., 24 h, read-out: MIC.
Where [4] appears, read: Staphylococcus aureus, ATCC6538, against S. aureus ATCC 6538, MHB, 37° C., 24 h, read-out: MIC.
Setting [5] is: against Bacillus coagulans MTCC 25235, GYEA broth, 37° C., 24 h.
[6] abbreviates: against S. aureus ATCC 6538, MHB, 37° C., 24 h.
[7] abbreviates: Heyndrickxia coagulans, MTCC25235, 24 h.
Where [8] appears, read: Staphylococcus aureus, ATCC6538, 24 h.

A word on the MIC: it is the least concentration at which growth counts as inhibited.

`CCC[C@@H]1C[C@@H](C(=O)N[C@@H]([C@H]2O[C@H](SC)[C@H](O)[C@@H](O)[C@H]2O)[C@H](C)Cl)N(C)C1` [Clindamycin hydrochloride]: the MIC was found to be 0.25 µg/mL in assay [1] (setting [3]) and 0.062 µg/mL in assay [2] (setting [4]).

As for `O=C(N[C@H](CO)[C@H](O)c1ccc([N+](=O)[O-])cc1)C(Cl)Cl` [Chloramphenicol], the values for the MIC in assay [1] (setting [3]) and in assay [2] (setting [4]) were 0.031 µg/mL and 2 µg/mL, respectively.

For `CC1(C)S[C@@H]2[C@H](NC(=O)[C@H](N)c3ccccc3)C(=O)N2[C@H]1C(=O)O` [Ampicillin sodium salt], the MIC in assay [1] (setting [3]) worked out at 0.125 µg/mL; in assay [2] (setting [4]), 0.031 µg/mL.

On to Kanamycin sulphate, for which the MIC was found to be 0.062 µg/mL in assay [1] (setting [5]) and 7.0 µg/mL in assay [2] (setting [6]).

With Gentamicin sulphate, the MIC in assay [1] (setting [5]) is 0.06 µg/mL; in assay [2] (setting [6]) it was 0.25 µg/mL.

As for `CN(C)[C@@H]1C(O)=C(C(N)=O)C(=O)[C@@]2(O)C(O)=C3C(=O)c4c(O)cccc4[C@@](C)(O)[C@H]3C[C@@H]12` [Tetracycline hydrochloride], the MIC came to 0.03 µg/mL in assay [1] (setting [3]) and 0.062 µg/mL in assay [2] (setting [4]).

Consider `CC[C@H]1OC(=O)[C@H](C)[C@@H](O[C@H]2C[C@@](C)(OC)[C@@H](O)[C@H](C)O2)[C@H](C)[C@@H](O[C@@H]2O[C@H](C)C[C@H](N(C)C)[C@H]2O)[C@](C)(O)C[C@@H](C)C(=O)[C@H](C)[C@@H](O)[C@]1(C)O` [Erythromycin], for which the MIC in assay [1] (setting [7]) and in assay [2] (setting [8]) was 0.125 µg/mL each time.

With `CN[C@H](CC(C)C)C(=O)N[C@H]1C(=O)N[C@@H](CC(N)=O)C(=O)N[C@H]2C(=O)N[C@H]3C(=O)N[C@H](C(=O)N[C@H](C(=O)O)c4cc(O)cc(O)c4-c4cc3ccc4O)[C@H](O)c3ccc(c(Cl)c3)Oc3cc2cc(c3O[C@@H]2O[C@H](CO)[C@@H](O)[C@H](O)[C@H]2O[C@H]2C[C@](C)(N)[C@H](O)[C@H](C)O2)Oc2ccc(cc2Cl)[C@H]1O` [Vancomycin hydrochloride], the MIC was 0.25 µg/mL in assay [1] (setting [7]) and 0.5 µg/mL in assay [2] (setting [8]).

As for `[H]/N=C(/N)N[C@H]1[C@H](O)[C@@H](O)[C@H](O[C@@H]2O[C@@H](C)[C@](O)(C=O)[C@H]2O[C@@H]2O[C@@H](CO)[C@H](O)[C@@H](O)[C@@H]2NC)[C@@H](N/C(N)=N\[H])[C@@H]1O` [Streptomycin sulphate], the MIC came to 0.062 µg/mL in assay [1] (setting [3]) and 4 µg/mL in assay [2] (setting [4]).
